In patent US20160376240A1, “6 Phenyl or 6 Pyridin 3 YL Indazole Derivatives and Methods of Use” (ABBVIE INC., priority 2014, published 2016):
pIC50: −log10 of the molar value.

Molecular target: T1, TrkA (Homo sapiens, UniProt P04629)
T1 construct: purchased Invitrogen PV3144
Test: TrkA kinase inhibition, HTRF assay
Format: biochemical
Conditions: LCK peptide substrate 125 nM, TrkA 2-10 nM pre-incubated with ATP 200 μM
Method in brief: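 TrkA (2-10 nM) preactivated 20 min with 200 μM ATP in HEPES pH 7.4 with Mg2+/Mn2+, then compound for 10 min, then 125 nM biotinylated LCK-peptide for 1 h at ambient temperature. HTRF 665/620 ratio read; IC50 fitted from initial-rate percent inhibition.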

T1 sequence (P04629 33-796): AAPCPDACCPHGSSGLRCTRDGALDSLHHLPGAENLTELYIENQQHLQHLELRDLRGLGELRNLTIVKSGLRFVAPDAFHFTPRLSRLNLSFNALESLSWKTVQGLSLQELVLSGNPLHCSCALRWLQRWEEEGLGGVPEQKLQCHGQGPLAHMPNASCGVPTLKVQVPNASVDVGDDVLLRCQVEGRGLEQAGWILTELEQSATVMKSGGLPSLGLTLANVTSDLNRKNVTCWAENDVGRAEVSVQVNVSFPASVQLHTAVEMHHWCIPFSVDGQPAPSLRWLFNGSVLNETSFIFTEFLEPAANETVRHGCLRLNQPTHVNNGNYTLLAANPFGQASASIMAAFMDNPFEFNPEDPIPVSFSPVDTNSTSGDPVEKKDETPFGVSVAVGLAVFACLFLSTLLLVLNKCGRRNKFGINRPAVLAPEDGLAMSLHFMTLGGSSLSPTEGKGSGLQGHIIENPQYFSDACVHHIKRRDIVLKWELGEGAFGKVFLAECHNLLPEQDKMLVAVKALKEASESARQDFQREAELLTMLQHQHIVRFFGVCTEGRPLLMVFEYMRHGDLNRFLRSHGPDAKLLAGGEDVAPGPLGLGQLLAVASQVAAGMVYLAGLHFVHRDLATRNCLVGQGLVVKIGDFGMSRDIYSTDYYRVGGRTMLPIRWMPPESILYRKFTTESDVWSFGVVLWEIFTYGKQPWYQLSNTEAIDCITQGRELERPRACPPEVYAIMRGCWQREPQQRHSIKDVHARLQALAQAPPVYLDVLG

Row | SMILES | pIC50
1 | CNC(=O)c1ccc(-c2cc(OC3CCOCC3)c3c(C)n[nH]c3c2)cc1N1CCN(C(=O)OCCOC)CC1 [Example 138, 2-methoxyethyl 4-{2-(methylcarbamoyl)-5-[3-methyl-4-(tetrahydro-2H-pyran-4-yloxy)-1H-indazol-6-yl]phenyl}piperazine-1-carboxylate] | 7.60
2 | Cc1n[nH]c2cc(-c3ccc(C#N)c(N4CCN(C(=O)OC(C)(C)C)CC4)c3)cc(OC3CCOCC3)c12 [Example 139, tert-butyl 4-{2-cyano-5-[3-methyl-4-(tetrahydro-2H-pyran-4-yloxy)-1H-indazol-6-yl]phenyl}piperazine-1-carboxylate] | 8.16
3 | Cc1n[nH]c2cc(-c3ccc(C(N)=O)c(N4CCN(C(=O)OC(C)(C)C)CC4)c3)cc(OC3CCOCC3)c12 [Example 140, tert-butyl 4-{2-carbamoyl-5-[3-methyl-4-(tetrahydro-2H-pyran-4-yloxy)-1H-indazol-6-yl]phenyl}piperazine-1-carboxylate] | 7.50
4 | CC(=O)Nc1ccc(-c2cc(OC3CCOCC3)c3c(C)n[nH]c3c2)cc1N1CCN(C(=O)OC(C)(C)C)CC1 [Example 141, tert-butyl 4-{2-acetamido-5-[3-methyl-4-(tetrahydro-2H-pyran-4-yloxy)-1H-indazol-6-yl]phenyl}piperazine-1-carboxylate] | 8.42
5 | Cc1n[nH]c2cc(-c3ccc(C(N)=O)c(N4CCN(C(=O)OC(C)C)CC4)c3)cc(OC3CCOCC3)c12 [Example 142, isopropyl 4-{2-carbamoyl-5-[3-methyl-4-(tetrahydro-2H-pyran-4-yloxy)-1H-indazol-6-yl]phenyl}piperazine-1-carboxylate] | 7.63
6 | CNC(=O)c1ccc(-c2cc(OC3CCOCC3)c3c(C)n[nH]c3c2)cc1N1CCN(CC(F)(F)F)CC1 [Example 143, N-methyl-4-[3-methyl-4-(tetrahydro-2H-pyran-4-yloxy)-1H-indazol-6-yl]-2-[4-(2,2,2-trifluoroethyl)piperazin-1-yl]benzamide] | 7.02
7 | CC(=O)Nc1ccc(-c2cc(OC3CCOCC3)c3c(C)n[nH]c3c2)cc1N1CCN(C(=O)C2CCC2)CC1 [Example 144, N-{2-[4-(cyclobutylcarbonyl)piperazin-1-yl]-4-[3-methyl-4-(tetrahydro-2H-pyran-4-yloxy)-1H-indazol-6-yl]phenyl}acetamide] | 7.60
8 | CC(=O)Nc1ccc(-c2cc(OC3CCOCC3)c3c(C)n[nH]c3c2)cc1N1CCN(Cc2ccccc2)CC1 [Example 145, N-{2-(4-benzylpiperazin-1-yl)-4-[3-methyl-4-(tetrahydro-2H-pyran-4-yloxy)-1H-indazol-6-yl]phenyl}acetamide] | 7.90
9 | CC(=O)Nc1ccc(-c2cc(OC3CCOCC3)c3c(C)n[nH]c3c2)cc1N1CCN(C(=O)OC(C)C)CC1 [Example 146, isopropyl 4-{2-acetamido-5-[3-methyl-4-(tetrahydro-2H-pyran-4-yloxy)-1H-indazol-6-yl]phenyl}piperazine-1-carboxylate] | 8.35
10 | CC(=O)Nc1ccc(-c2cc(OC3CCOCC3)c3c(C)n[nH]c3c2)cc1OCCNC(=O)OC(C)C [Example 147, isopropyl (2-{2-acetamido-5-[3-methyl-4-(tetrahydro-2H-pyran-4-yloxy)-1H-indazol-6-yl]phenoxy}ethyl)carbamate] | 7.51
11 | CC(=O)Nc1ccc(-c2cc(OC3CCOCC3)c3c(C)n[nH]c3c2)cc1N1CCN(Cc2cccnc2)CC1 [Example 148, N-{4-[3-methyl-4-(tetrahydro-2H-pyran-4-yloxy)-1H-indazol-6-yl]-2-[4-(pyridin-3-ylmethyl)piperazin-1-yl]phenyl}acetamide] | 7.46
12 | CC(=O)Nc1ccc(-c2cc(OC3CCOCC3)c3c(C)n[nH]c3c2)cc1N1CCN(Cc2cccc(F)c2)CC1 [Example 149, N-{2-[4-(3-fluorobenzyl)piperazin-1-yl]-4-[3-methyl-4-(tetrahydro-2H-pyran-4-yloxy)-1H-indazol-6-yl]phenyl}acetamide] | 7.60
13 | CC(=O)Nc1ccc(-c2cc(OC3CCOCC3)c3c(C)n[nH]c3c2)cc1N1CCN(Cc2ccc(Cl)o2)CC1 [Example 150, N-(2-{4-[(5-chloro-2-furyl)methyl]piperazin-1-yl}-4-[3-methyl-4-(tetrahydro-2H-pyran-4-yloxy)-1H-indazol-6-yl]phenyl)acetamide] | 7.13
14 | CC(=O)Nc1ccc(-c2cc(OC3CCOCC3)c3c(C)n[nH]c3c2)cc1N1CCN(C(=O)NC(C)C)CC1 [Example 151, 4-{2-acetamido-5-[3-methyl-4-(tetrahydro-2H-pyran-4-yloxy)-1H-indazol-6-yl]phenyl}-N-isopropylpiperazine-1-carboxamide] | 6.78
15 | CNC(=O)c1ccc(-c2cc(OC3CCOCC3)c3c(C)n[nH]c3c2)cc1N1CCN(S(=O)(=O)c2ccc(C)cc2)CC1 [Example 152, N-methyl-2-{4-[(4-methylphenyl)sulfonyl]piperazin-1-yl}-4-[3-methyl-4-(tetrahydro-2H-pyran-4-yloxy)-1H-indazol-6-yl]benzamide] | 8.13
16 | CNC(=O)c1ccc(-c2cc(OC3CCOCC3)c3c(C)n[nH]c3c2)cc1N1CCN(C(=O)OC)CC1 [Example 153, methyl 4-{2-(methylcarbamoyl)-5-[3-methyl-4-(tetrahydro-2H-pyran-4-yloxy)-1H-indazol-6-yl]phenyl}piperazine-1-carboxylate] | 8.04
17 | CNC(=O)c1ccc(-c2cc(OC3CCOCC3)c3c(C)n[nH]c3c2)cc1N1CCN(Cc2cccc(F)c2)CC1 [Example 154, 2-[4-(3-fluorobenzyl)piperazin-1-yl]-N-methyl-4-[3-methyl-4-(tetrahydro-2H-pyran-4-yloxy)-1H-indazol-6-yl]benzamide] | 7.80
18 | CNC(=O)c1ccc(-c2cc(OC3CCOCC3)c3c(C)n[nH]c3c2)cc1N1CCN(C(=O)NC(C)C)CC1 [Example 155, N-isopropyl-4-{2-(methylcarbamoyl)-5-[3-methyl-4-(tetrahydro-2H-pyran-4-yloxy)-1H-indazol-6-yl]phenyl}piperazine-1-carboxamide] | 8.64
19 | Cc1n[nH]c2cc(-c3ccc(C#N)c(N4CCN(CC(F)(F)F)CC4)c3)cc(OC3CCOCC3)c12 [Example 156, 4-[3-methyl-4-(tetrahydro-2H-pyran-4-yloxy)-1H-indazol-6-yl]-2-[4-(2,2,2-trifluoroethyl)piperazin-1-yl]benzonitrile] | 7.54
20 | Cc1n[nH]c2cc(-c3ccc(C(N)=O)c(N4CCN(CC(F)(F)F)CC4)c3)cc(OC3CCOCC3)c12 [Example 157, 4-[3-methyl-4-(tetrahydro-2H-pyran-4-yloxy)-1H-indazol-6-yl]-2-[4-(2,2,2-trifluoroethyl)piperazin-1-yl]benzamide] | 7.64
21 | CCc1n[nH]c2cc(-c3ccc(C(=O)NC)c(N4CCN(C(=O)OC(C)(C)C)CC4)c3)cc(OC3CCOCC3)c12 [Example 158, tert-butyl 4-{5-[3-ethyl-4-(tetrahydro-2H-pyran-4-yloxy)-1H-indazol-6-yl]-2-(methylcarbamoyl)phenyl}piperazine-1-carboxylate] | 6.50
22 | CNC(=O)c1ccc(-c2cc(OC3CCOCC3)c3c(C)n[nH]c3c2)cc1N1CCN(Cc2ccccc2)C(=O)C1 [Example 159, 2-(4-benzyl-3-oxopiperazin-1-yl)-N-methyl-4-[3-methyl-4-(tetrahydro-2H-pyran-4-yloxy)-1H-indazol-6-yl]benzamide] | 7.67
